Measurements from patent publication US5541175A, “Cephalosporin antibiotics” (Lucky, Ltd., priority 1993, dated 1996).
Values after ≈ are worked out from the molar mass of the structure shown. Like-named read-outs stand apart in the source and are kept apart here.

Columns and labels:
Assay in all cases: Minimum inhibitory concentration (agar 2-fold dilution)
Assay type in all cases: cell-based
[1] = test system: Escherichia coli TEM5 3739E; details: TEM53739E, 20 h, read-out: Minimum Inhibitory Concentration
Procedure: (§1) The minimum inhibitory concentration was determined by diluting the test compounds according to 2-fold dilution, suspending them in Muller-Hinton agar medium, inoculating 2 μl of the suspension containing the test strains having 10^7 CFU (Colony Forming Unit) per 1 ml into the medium and then culturing the test strains at 37° C. for 20 hours.

[2] = test system: Staphylococcus aureus 241; details: read-out: Minimum Inhibitory Concentration
Procedure: as §1

Escherichia coli 10536 = details: read-out: Minimum Inhibitory Concentration
Procedure: as §1

[3] = test system: Escherichia coli TEM7 3457E; details: TEM73457E, 20 h, read-out: Minimum Inhibitory Concentration
Procedure: as §1

[4] = test system: Escherichia coli TEM1 1193E; details: TEM11193E, 20 h, read-out: Minimum Inhibitory Concentration
Procedure: as §1

[5] = test system: Pseudomonas aeruginosa 1912E; details: read-out: Minimum Inhibitory Concentration
Procedure: as §1

[6] = test system: Salmonella typhimurium 14028A; details: Salmonella enterica, read-out: Minimum Inhibitory Concentration
Procedure: as §1

[7] = test system: Enterobacter cloacae IND + VE 1194E; details: read-out: Minimum Inhibitory Concentration
Procedure: as §1

Escherichia coli 3190Y = details: read-out: Minimum Inhibitory Concentration
Procedure: as §1

Staphylococcus aureus 77 = details: read-out: Minimum Inhibitory Concentration
Procedure: as §1

[8] = test system: Streptococcus faecalis 29212A; details: Enterococcus faecalis, read-out: Minimum Inhibitory Concentration
Procedure: as §1

Enterobacter cloacae P99 = details: P99, 20 h, read-out: Minimum Inhibitory Concentration
Procedure: as §1

[9] = test system: Pseudomonas aeruginosa 10145; details: read-out: Minimum Inhibitory Concentration
Procedure: as §1

[10] = test system: Escherichia coli TEM9 2639E; details: TEM92639E, 20 h, read-out: Minimum Inhibitory Concentration
Procedure: as §1

[11] = test system: Citrobacter diversus 2046E; details: Citrobacter koseri, read-out: Minimum Inhibitory Concentration
Procedure: as §1

[12] = test system: Acinetobacter calcoaceticus 15473A; details: read-out: Minimum Inhibitory Concentration
Procedure: as §1

[13] = test system: Klebsiella aerogenes SHV-1 1976E; details: SHV11976E
Procedure: as §1

[14] = test system: Escherichia coli TEM3 3455E; details: TEM33455E, 20 h, read-out: Minimum Inhibitory Concentration
Procedure: as §1

[15] = test system: Staphylococcus aureus epidermidis 887E; details: read-out: Minimum Inhibitory Concentration
Procedure: as §1

[16] = test system: Staphylococcus aureus 6538P; details: read-out: Minimum Inhibitory Concentration
Procedure: as §1

[17] = test system: Serratia marcescens 1826E; details: read-out: Minimum Inhibitory Concentration
Procedure: as §1

[18] = test system: Staphylococcus aureus giorgio; details: read-out: Minimum Inhibitory Concentration
Procedure: as §1

Escherichia coli 851E = details: E. coli 851E, Muller-Hinton agar, 37° C., 20 hours
Procedure: as §1

[19] = test system: Pseudomonas aeruginosa 6065; details: read-out: Minimum Inhibitory Concentration
Procedure: as §1

Proteus vulgaris 6059A = details: read-out: Minimum Inhibitory Concentration
Procedure: as §1

[20] = test system: Klebsiella aerogenes K1 + 1082E; details: 20 h, read-out: Minimum Inhibitory Concentration
Procedure: as §1

[21] = Staphylococcus aureus, 77, 20 h
[22] = Staphylococcus aureus, S. aureus 241, Muller-Hinton agar, 37° C., 20 hours
[23] = Escherichia coli, E. coli 10536, Muller-Hinton agar, 37° C., 20 hours
[24] = P. aeruginosa 1912E, Muller-Hinton agar, 37° C., 20 hours
[25] = S. typhimurium 14028A, Muller-Hinton agar, 37° C., 20 hours
[26] = E. cloacae IND + VE 1194E, Muller-Hinton agar, 37° C., 20 hours
[27] = E. coli 3190Y, Muller-Hinton agar, 37° C., 20 hours
[28] = S. faecalis 29212A, Muller-Hinton agar, 37° C., 20 hours
[29] = Pseudomonas aeruginosa, P. aeruginosa 10145, Muller-Hinton agar, 37° C., 20 hours
[30] = C. diversus 2046E, Muller-Hinton agar, 37° C., 20 hours
[31] = A. calcoaceticus 15473A, Muller-Hinton agar, 37° C., 20 hours
[32] = K. aerogenes SHV-1 1976E, Muller-Hinton agar, 37° C., 20 hours
[33] = S. aureus epidermidis 887E, Muller-Hinton agar, 37° C., 20 hours
[34] = S. marcescens 1826E, Muller-Hinton agar, 37° C., 20 hours
[35] = S. aureus giorgio, Muller-Hinton agar, 37° C., 20 hours
[36] = Pseudomonas aeruginosa, P. aeruginosa 6065, Muller-Hinton agar, 37° C., 20 hours
[37] = P. vulgaris 6059A, Muller-Hinton agar, 37° C., 20 hours

CC(C)(O/N=C(\C(=O)N[C@@H]1C(=O)N2C(C(=O)[O-])=C(C[n+]3ccccc3)CS[C@H]12)c1csc(N)n1)C(=O)O [CAZ, Ceftazidime, reference compound]
MIC [1]: 8 µg/mL (≈ 14.6 µM) | MIC ([2]; Staphylococcus aureus, 241, 20 h): > 128 µg/mL | MIC (Escherichia coli 10536; Escherichia coli, 10536, 20 h): 0.13 µg/mL (≈ 0.238 µM) | MIC [3]: 16 µg/mL (≈ 29.3 µM) | MIC [4]: 0.25 µg/mL (≈ 0.457 µM) | MIC ([5]; 1912E, 20 h): 1 µg/mL (≈ 1.83 µM) | MIC ([6]; TYPHIMURIUM, 20 h): 0.25 µg/mL (≈ 0.457 µM) | MIC ([7]; 20 h): 128 µg/mL (≈ 234 µM) | MIC (Escherichia coli 3190Y; 3190Y, 20 h): 0.063 µg/mL (≈ 0.115 µM) | MIC (Staphylococcus aureus 77; [21]): 32 µg/mL (≈ 58.5 µM) | MIC ([8]; 29212A, 20 h): > 128 µg/mL | MIC (Enterobacter cloacae P99): 64 µg/mL (≈ 117 µM) | MIC ([9]; Pseudomonas aeruginosa, 10145, 20 h): 2 µg/mL (≈ 3.66 µM) | MIC [10]: > 128 µg/mL | MIC ([11]; 2046E, 20 h): 0.5 µg/mL (≈ 0.915 µM) | MIC ([12]; 15473A, 20 h): 2 µg/mL (≈ 3.66 µM) | MIC ([13]; 20 h): 0.25 µg/mL (≈ 0.457 µM) | MIC [14]: 8 µg/mL (≈ 14.6 µM) | MIC ([15]; 20 h): > 128 µg/mL | MIC ([16]; 6538P, 20 h): 16 µg/mL (≈ 29.3 µM) | MIC ([17]; 1826E, 20 h): 0.25 µg/mL (≈ 0.457 µM) | MIC ([18]; 20 h): 4 µg/mL (≈ 7.32 µM) | MIC (Escherichia coli 851E): 0.063 µg/mL (≈ 0.115 µM) | MIC ([19]; Pseudomonas aeruginosa, 6065, 20 h): 16 µg/mL (≈ 29.3 µM) | MIC (Proteus vulgaris 6059A; 6059A, 20 h): 0.063 µg/mL (≈ 0.115 µM) | MIC [20]: 0.5 µg/mL (≈ 0.915 µM)

Nc1nc(/C(=N/O[C@@H](C(=O)O)c2ccc(O)c(O)c2)C(=O)N[C@@H]2C(=O)N3C(C(=O)[O-])=C(/C=C/C[n+]4cnc(N)c5c4CCC5)CS[C@H]23)cs1 [Compound I-3b, 7-[(Z)-2-(2-aminothiazol-4-yl)-2-(α-carboxy-3,4-dihydroxybenzyloxyimino)acetamido]-3-[(E)-3-(4-amino-5,6-cyclopentanopyrimidinium-1-yl)-1-propen-1-yl]-3-cephem-4-carboxylate]
MIC [1]: 2 µg/mL (≈ 2.82 µM) | MIC [2, 22]: > 128 µg/mL | MIC (Escherichia coli 10536; [23]): 0.13 µg/mL (≈ 0.183 µM) | MIC [3]: 0.5 µg/mL (≈ 0.705 µM) | MIC [4]: 0.25 µg/mL (≈ 0.353 µM) | MIC [5, 24]: 8 µg/mL (≈ 11.3 µM) | MIC [6, 25]: 0.13 µg/mL (≈ 0.183 µM) | MIC [7, 26]: 32 µg/mL | MIC (Escherichia coli 3190Y; [27]): 0.25 µg/mL (≈ 0.353 µM) | MIC (Staphylococcus aureus 77; Staphylococcus aureus, S. aureus 77, Muller-Hinton agar, 37° C., 20 hours): 4 µg/mL (≈ 5.64 µM) | MIC [8, 28]: 8 µg/mL (≈ 11.3 µM) | MIC (Enterobacter cloacae P99): 64 µg/mL (≈ 90.3 µM) | MIC [9, 29]: 8 µg/mL (≈ 11.3 µM) | MIC [10]: 2 µg/mL (≈ 2.82 µM) | MIC [11, 30]: 4 µg/mL (≈ 5.64 µM) | MIC [12, 31]: 4 µg/mL (≈ 5.64 µM) | MIC [13, 32]: 1 µg/mL (≈ 1.41 µM) | MIC [14]: 0.5 µg/mL (≈ 0.705 µM) | MIC [15, 33]: 64 µg/mL (≈ 90.3 µM) | MIC ([16]; S. aureus 6538P, Muller-Hinton agar, 37° C., 20 hours): 0.5 µg/mL (≈ 0.705 µM) | MIC [17, 34]: 4 µg/mL (≈ 5.64 µM) | MIC [18, 35]: 0.5 µg/mL (≈ 0.705 µM) | MIC (Escherichia coli 851E): 0.25 µg/mL (≈ 0.353 µM) | MIC [19, 36]: 64 µg/mL (≈ 90.3 µM) | MIC (Proteus vulgaris 6059A; [37]): 1 µg/mL (≈ 1.41 µM) | MIC [20]: 1 µg/mL (≈ 1.41 µM)

Nc1nc(/C(=N/O[C@@H](C(=O)O)c2ccc(O)c(O)c2)C(=O)N[C@@H]2C(=O)N3C(C(=O)[O-])=C(/C=C/C[n+]4cnc(N)c(N)c4N)CS[C@H]23)cs1 [Compound I-5b, 7-[(Z)-2-(2-aminothiazol-4-yl)-2-(α-carboxy-3,4-dihydroxybenzyloxyimino)acetamido]-3-[(E)-3-(4,5,6-triaminopyrimidinium-1-yl)-1-propen-1-yl]-3-cephem-4-carboxylate]
MIC [1]: 1 µg/mL (≈ 1.43 µM) | MIC [2, 22]: 128 µg/mL (≈ 183 µM) | MIC (Escherichia coli 10536; [23]): 0.13 µg/mL (≈ 0.186 µM) | MIC [3]: 0.25 µg/mL (≈ 0.358 µM) | MIC [4]: 0.25 µg/mL (≈ 0.358 µM) | MIC [5, 24]: 1 µg/mL (≈ 1.43 µM) | MIC [6, 25]: 0.031 µg/mL (≈ 0.0444 µM) | MIC [7, 26]: 8 µg/mL | MIC (Escherichia coli 3190Y; [27]): 0.13 µg/mL (≈ 0.186 µM) | MIC (Staphylococcus aureus 77; [21]): 2 µg/mL (≈ 2.86 µM) | MIC [8, 28]: 8 µg/mL (≈ 11.4 µM) | MIC (Enterobacter cloacae P99): 16 µg/mL (≈ 22.9 µM) | MIC [9, 29]: 2 µg/mL (≈ 2.86 µM) | MIC [10]: 1 µg/mL (≈ 1.43 µM) | MIC [11, 30]: 4 µg/mL (≈ 5.72 µM) | MIC [12, 31]: 1 µg/mL (≈ 1.43 µM) | MIC [13, 32]: 1 µg/mL (≈ 1.43 µM) | MIC [14]: 0.063 µg/mL (≈ 0.0902 µM) | MIC [15, 33]: 64 µg/mL (≈ 91.6 µM) | MIC ([16]; 6538P, 20 h): 0.5 µg/mL (≈ 0.716 µM) | MIC [17, 34]: 2 µg/mL (≈ 2.86 µM) | MIC [18, 35]: 0.5 µg/mL (≈ 0.716 µM) | MIC (Escherichia coli 851E): 0.13 µg/mL (≈ 0.186 µM) | MIC [19, 36]: 8 µg/mL (≈ 11.4 µM) | MIC (Proteus vulgaris 6059A; [37]): 1 µg/mL (≈ 1.43 µM) | MIC [20]: 1 µg/mL (≈ 1.43 µM)
